Measured values taken from patent publication EP3064205A1, “Therapeutic use of isomeric forms of 2-(4-chlorophenyl)quinolin-4-yl)(piperidin-2-yl)methanol” (Glionova AB, priority 2015, dated 2016).
Where two headings read alike, the source gives them in different places.

System: patient-derived tumor xenograft (PDX) tumor panel
Assay: 3D clonogenic assay, whole panel
Type: cell-based, human
Conditions: for IC50: Homo sapiens
Protocol: The anti-tumor efficacy of S1 in the patient-derived tumor xenograft (PDX) tumor panel was assessed, where the efficacy of S1 in PDX tumor panel in the 96-well format, in 10 concentrations in duplicate was performed. Colony formation of tumor cell suspensions in a soft-agar matrix was observed and quantified. The output is IC50 values and dose response-relationships based on number of colonies in control and treatment wells, as identified by an automated image analysis algorithm. Stock solution of S1 was prepared in 100% DMSO at 10 mM concentration (stored at -20°C) and reused for each experiment. Compound final test concentrations: Dilution series ½ i.e.: 50µM, 15, 5, 1.5, 0.5, 0.15, 0.05, 0.015, 0.005 and 0.0015.
Tumor xenografts (also referred to as patient-derived tumor xenografts) were passaged as subcutaneous xenografts in NMRI nu/nu mice. Tumor xenograft were removed from mice under sterile conditions, mechanically disaggregated and subsequently incubated with an enzyme cocktail consisting of collagenase type IV (41 U/mL), DNase I (125 U/mL), hyaluronidase type III (100 U/mL) and dispase II (1.0 U/mL) in RPMI 1640 medium at 37°C for 60 - 120 minutes. Cells were passed through sieves of 100 µm and 40 µm mesh size and washed with RPMI 1640 medium. The percentage of viable cells was determined in a Neubauer-hemocytometer using trypan blue exclusion. Aliquots of the cells were frozen down, and stored in liquid nitrogen.
The clonogenic assay test was carried out in 96 well plate format. For each test a frozen aliquot of tumor cells prepared from tumor xenografts was thawed and assay plates were prepared as follows: each test well contained 3 layers of equal volume, 2 layers of semi-solid medium (bottom and top layer), and one layer of medium supernatant, with or without test compound. The bottom layer consisted of 0.05 mL/well Iscove's Modified Dulbecco's Medium (Invitrogen), supplemented with 20% (v/v) fetal calf serum (Sigma), 0.01% (w/v) gentamicin (Invitrogen) and 0.75% (w/v) agar (BD Biosciences). Tumor cells were added to 0.05 mL of the same culture medium supplemented with 0.4% (w/v) agar and plated onto the bottom layer. After 24 h, test compounds were added after serial dilution in DMSO and transfer in cell culture medium, and left on the cells for the duration of the experiment (continuous exposure, 0.05 mL drug overlay). Every dish included six untreated control wells and drug-treated groups in duplicate at 10 concentrations. Cultures were incubated at 37 °C and 7.5% CO2 in a humidified atmosphere for 8 to 13 days and monitored closely for colony growth using an inverted microscope. Within this period, ex vivo tumor growth lead to the formation of colonies with a diameter of >50 µm. At the time of maximum colony formation, counts were performed with an automatic image analysis system. 24 h prior to evaluation, vital colonies were stained with a sterile aqueous solution of 2-(4-iodophenyl)-3-(4-nitrophenyl)-5-phenyltetrazolium chloride (1 mg/mL, 100 µL/well). Sigmoidal concentration-response curves were fitted to the data points obtained for each tumor model using 4 parameter non-linear curve fit (Oncotest Warehouse Software). IC50 values are reported as relative IC50 values, being the concentration of test compound that give a response (inhibition of colony formation/viability) half way between the top and bottom plateau of the sigmoidal concentration-response curve (inflection point of the curve), or as absolute IC50 values, being the concentration of test compound at the intersection of the concentration-response curves with T/C = 50%. For calculation of mean IC50 values the geometric mean was used. Results are presented as mean graph plots or heat maps (individual IC50 values relative to the geometric mean IC50 value) over all cell lines as tested.

IC50 (colony formation, mean over tumors, read-out: absolute mean IC50 value): 8.89 µM | IC50 (colony formation, mean over tumors, read-out: relative mean IC50 value): 8.1 µM | IC50 (geometric mean over Table 2, read-out: Mean IC50 (qeometr.) abs. IC50): 9.47 µM | IC50 (geometric mean over Table 2, read-out: Mean IC50 (qeometr.) rel. IC50): 8.7 µM | IC50 (most tumors tested, read-out: IC50): 2 to 15 µM | IC50 (three tumors: BXF1352, CXF647, LXFA289, read-out: IC50): > 15 µM | IC50 lower than the mean of all tumors (sensitive tumors BXF 1258 and LXFA 526, on average): 3 fold
Structure (SMILES): O[C@H](c1cc(-c2ccc(Cl)cc2)nc2ccccc12)[C@@H]1CCCCN1 [S1, (R)-(2-(4-chlorophenyl)quinolin-4-yl)((S)-piperidin-2-yl)methanol]
bottom plateaus of the concentration-effect curves (range over tested xenografts): 0% to 47%
